Legend:
[1] = tested on: HEK-Blue IL-17 cells with rhIL-17A/A; test: HEK-Blue IL-17 cell assay (SEAP reporter, rhIL-17A/A stimulation); type: cell-based, human; settings: Homo sapiens, HEK-Blue, 20 h, 20 hours incubation, absorbance at 405 nm, read-out: IC50 in HEK-Bule cell Assay
Description: • 1. The test Compounds were 3-fold serial diluted from 10 mM for 10 doses in DMSO. • 2. Prepare Reference Compounds (IL-17A-Inhibitor-1) were 3-fold serial diluted from 1 mM for 10 doses in DMSO. • 3. Prepare 1000× Positive control (1 mM IL-17A-Inhibitor-1) and 1000× vehicle control (100% DMSO).
• a) Cells were cultured as the HEK-Blue™ IL-17 technical data sheet recommended. HEK-Blue IL-17 cells were assayed in the exponential growth phase. • b) Aspirate growth medium and rinse cells twice with PBS to remove phenol red. • c) Resuspend cells in test medium to a proper concentration. • d) Only cells with viability greater than 90% were used for assays. • e) Transfer 25 nl of compound dilutions into 384-well assay plates using Echo655; • f) Seed 25 ul of HEK-Blue IL-17 cells at 8,000 cells/well into 384-well plate with rhIL-17A/A. • g) Cells were incubated for 20 hours at 37° C. under 5% CO2 atmosphere. • h) Transfer 2 ul of cells supernatant into per well of 384-well assay plates. • i) Add 20 ul of PNPP substrate. • j) Measure the Absorbance at 405 nm on Envision 2105 plate reader.
RLU signal (LUMcmpd) is calculated for each well.
% Inhibition is calculated as follow: […]
Signalave_pc: The average signal for the positive controls across the plate.
Signalave_vc: The average signal for negative controls across the plate.
Calculate IC50 and Plot effect-dose curve of cmpds:
Calculate IC50 by fitting % Inhibition values and log of compound concentrations to nonlinear regression (dose response−variable slope) with Graphpad 8.0.

[2] = Pharmacokinetics after oral gavage in fasted SD rats; type: in vivo; settings: PO 10 mg per kilogram, plasma; for AUC: 0.25-24 hours; for bioavailability: rat, 10 mg per kilogram body weight
Description: Compounds of the present application were formulated in 40% PEG400/10% solutol/2% Tween 80/48% saline (v/v/v/v), and administered via oral gavage (PO) at the dosages of 10 mg per kilogram body weight in fasted SD rats. Plasma samples were collected at 0.25, 0.5, 1, 2, 4, 8, and 24 hours post dosing. Compound concentration was determined by LC-MS and pharmacokinetics parameters were calculated by WinNonlin 8.2 using Non-Compartmental Analysis model.

AUC [2] [ng · h/m]	Structure (SMILES)	IC50 [1] [nM]	bioavailability [2] [%]
9703	CC(C)[C@H]1C[C@@H](C(=O)N2CC(F)(F)C2)c2ccc(NC(=O)[C@@H](NC(=O)c3ccnn3C(C)C)C(C3CC3)C3CC3)cc2O1 [Compound 161]	43.3	63.5
18980	CC(C)[C@H]1C[C@@H](C(=O)N2CC(F)(F)C2)c2ccc(NC(=O)[C@@H](NC(=O)c3ccnn3C(C)C)C3CCCCCC3)cc2O1 [Compound 204]	46.6	34.8
7840	CC(C)n1nccc1C(=O)N[C@H](C(=O)Nc1ccc2c(c1)OC1(CCC(F)(F)CC1)CC2C(=O)N1CC(F)(F)C1)C1CCCCCC1 (stereo partly shown) [Compound 225]	44.9	57.6
	CC(C)n1nccc1C(=O)N[C@H](C(=O)Nc1ccc2c(c1)OC(C1CC(F)(F)C1)CC2C(=O)N1CC(C(F)F)C1)C1CCCCCC1 (stereo partly shown) [Compound 232]	77.1	
	CC1CN(C(=O)N2CC(F)(F)C2)c2ccc(NC(=O)[C@@H](NC(=O)c3ccnn3C(C)C)C3CCCCCC3)cc2O1 (stereo partly shown) [Compound 235]	71.9	
	CC(C)n1nccc1C(=O)N[C@H](C(=O)Nc1cc2c(cc1F)C(C(=O)N1CC(F)(F)C1)CC1(CCOCC1)O2)C1CCCCCC1 (stereo partly shown) [Compound 236]	14.9	
	CC(C)n1nccc1C(=O)N[C@H](C(=O)Nc1cc2c(cc1F)C(C(=O)N1CC(F)(F)C1)CC1(CCOCC1)O2)C(C1CC1)C1CC1 (stereo partly shown) [Compound 237]	26.1	
	CC(C)n1nccc1C(=O)N[C@H](C(=O)Nc1ccc2c(c1)OC1(CCOCC1)CC2C(=O)N1CC(F)(F)C1)[C@H]1CC[C@H](C)CC1 (stereo partly shown) [Compound 239]	31.1	
	CC(C)n1nccc1C(=O)N[C@H](C(=O)Nc1ccc2c(c1)O[C@@H](C1CC(F)(F)C1)C[C@H]2C(=O)N1CC(F)(F)C1)C1CCC(F)(F)CC1 [Compound 240]	48.3	
	CC(C)n1nccc1C(=O)N[C@H](C(=O)Nc1ccc2c(c1)O[C@@H](C1CC(F)(F)C1)C[C@H]2C(=O)N1CC(F)(F)C1)[C@H]1CC[C@H](C)CC1 [Compound 241]	15.9	
	CC(C)n1nccc1C(=O)N[C@H](C(=O)Nc1ccc2c(c1)OC1(CCC(F)(F)CC1)CC2C(=O)N1CC(F)(F)C1)C(C1CC1)C1CC1 (stereo partly shown) [Compound 243]	122	
	CC(C)n1nccc1C(=O)N[C@H](C(=O)Nc1cc2c(cc1F)C(C(=O)N1CC(F)(F)C1)CC1(CCOCC1)O2)[C@H]1CC[C@H](C)CC1 (stereo partly shown) [Compound 244]	13.5	
	CC(C)n1nccc1C(=O)N[C@H](C(=O)Nc1cc2c(cc1F)[C@H](C(=O)N1CC(F)(F)C1)C[C@H](C1CC(F)(F)C1)O2)C(C1CC1)C1CC1 [Compound 245]	22	
	CC(C)n1nccc1C(=O)N[C@H](C(=O)Nc1ccc2c(c1)OC1(CCOCC1)CN2C(=O)N1CC(F)(F)C1)C(C1CC1)C1CC1 [Compound 246]	18.2	
	CC(C)C1CN(C(=O)N2CC(F)(F)C2)c2ccc(NC(=O)[C@@H](NC(=O)c3ccnn3C(C)C)C(C3CC3)C3CC3)cc2O1 (stereo partly shown) [Compound 247]	30.4	
6093	CC(C)n1nccc1C(=O)N[C@H](C(=O)Nc1cc2c(cc1F)[C@H](C(=O)N1CC(F)(F)C1)C[C@H](C1CC(F)(F)C1)O2)[C@H]1CC[C@H](C)CC1 [Compound 248]	24.4	70.7
	CC(C)n1nccc1C(=O)N[C@H](C(=O)Nc1cc2c(cc1F)[C@H](C(=O)N1CC(F)(F)C1)C[C@H](C1CC(F)(F)C1)O2)C1CCC(F)(F)CC1 [Compound 249]	99.3	

Source: patent US20250011303A1, “SMALL MOLECULE MODULATORS OF IL-17A, METHODS OF MAKING AND METHODS OF USING THEREOF” (ASCLETIS BIOSCIENCE CO., LTD, priority 2023, published 2025)
